This is an account of results in patent US20220054469A1, “FARNESOID X RECEPTOR AGONISTS AND USES THEREOF” (Metacrine, Inc., priority 2018, published 2022).

The EC50 is the concentration that produces a half-maximal response.

A value given as a limit tells only on which side of the number the result lay.

For this experiment, the target named is T1, hFXR (Homo sapiens, UniProt Q96RI1).
T1 construct: expressed in transfected cells; host or cells: CV-1 cells
T1 sequence (Q96RI1 1-486): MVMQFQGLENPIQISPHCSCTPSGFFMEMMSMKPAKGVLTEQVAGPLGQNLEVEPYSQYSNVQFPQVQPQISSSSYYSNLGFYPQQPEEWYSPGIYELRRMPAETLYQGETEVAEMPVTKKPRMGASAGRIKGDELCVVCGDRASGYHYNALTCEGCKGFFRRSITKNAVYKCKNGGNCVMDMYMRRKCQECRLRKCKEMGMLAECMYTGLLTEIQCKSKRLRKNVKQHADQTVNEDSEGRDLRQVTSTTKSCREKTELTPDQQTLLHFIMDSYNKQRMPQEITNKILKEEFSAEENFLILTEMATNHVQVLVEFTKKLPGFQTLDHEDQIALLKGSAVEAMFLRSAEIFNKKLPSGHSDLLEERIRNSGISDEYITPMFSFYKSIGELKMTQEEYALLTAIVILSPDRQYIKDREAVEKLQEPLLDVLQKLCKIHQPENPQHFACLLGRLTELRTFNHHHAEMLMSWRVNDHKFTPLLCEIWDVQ
T1 sequence (P19793 1-462 partner): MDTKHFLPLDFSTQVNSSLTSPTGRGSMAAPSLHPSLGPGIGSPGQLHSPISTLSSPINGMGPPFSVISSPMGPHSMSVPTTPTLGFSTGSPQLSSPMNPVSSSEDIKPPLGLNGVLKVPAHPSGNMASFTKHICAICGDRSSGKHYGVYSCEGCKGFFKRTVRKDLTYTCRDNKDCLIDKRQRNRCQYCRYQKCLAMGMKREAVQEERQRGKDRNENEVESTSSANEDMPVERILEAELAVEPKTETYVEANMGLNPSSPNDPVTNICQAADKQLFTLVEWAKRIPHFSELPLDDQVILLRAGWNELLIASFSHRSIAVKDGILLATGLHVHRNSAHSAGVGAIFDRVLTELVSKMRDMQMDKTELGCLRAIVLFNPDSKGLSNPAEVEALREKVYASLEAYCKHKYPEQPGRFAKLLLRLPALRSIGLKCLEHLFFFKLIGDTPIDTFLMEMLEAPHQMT
The experiment in a line: In Vitro FXR Assay (TK). The experiment is classed as cell-based. The note with it: CV-1 cells transfected with hFXR, hRXR, TK-ECRE-luc and pCMX-YFP; incubated with compound for 18 hrs; luminescence. The protocol: Example B-1: In Vitro FXR Assay (TK)
CV-1 cells were seeded at a density of 2,000,000 cells in a T175 flask with DMEM+10% charcoal double-stripped FBS and incubated at 37° C. in 5% CO2 for 18 h (O/N).
After 18 h of incubation, the medium in the T175 flask was changed with fresh DMEM+10% charcoal super-stripped serum. In a polypropylene tube, 2500 μL OptiMEM (Life Technologies, Cat #31985-062) was combined with expression plasmids for hFXR, hRXR, TK-ECRE-luc and pCMX-YFP. The tube was then briefly vortexed and incubated at room temperature for 5 minutes. Transfection reagent (X-tremeGENE HP from Roche, Cat #06 366 236 001) was added to the OptiMEM/plasmid mixture vortexed and incubated at room temperature for 20 minutes. Following incubation, the transfection reagent/DNA mixture complex was added to cells in the T175 flask and the cells were incubated at 37° C. in 5% CO2 for 18 h (O/N).
Compounds were serially diluted in DMSO and added to transfected CV-1 cells. The cells were then incubated for 18 hrs. The next day cells were lysed and examined for luminescence.

On to `COc1ccc(C23CCC(CN(c4cc(-c5ccn(C(C)C)n5)ccn4)C(=O)[C@H]4CC[C@H](CC(=O)O)CC4)(CC2)CC3)cc1C` [Compound 4.23, trans-2-(4-((4-(1-Isopropyl-1H-pyrazol-3-yl)pyridin-2-yl)((4-(4-methoxy-3-methylphenyl)bicyclo[2.2.2]octan-1-yl)methyl)carbamoyl)cyclohexyl)acetic acid], for which the EC50 was ≤ 0.05 µM.

Turning to `COc1ccc(C23CCC(CN(c4cccc(-c5cnn(C(C)C)c5)c4F)C(=O)[C@H]4CC[C@H](CC(=O)O)CC4)(CC2)CC3)cc1C` [Compound 2.08, trans-2-(4-((2-Fluoro-3-(1-isopropyl-1H-pyrazol-4-yl)phenyl)((4-(4-methoxy-3-methylphenyl)bicyclo[2.2.2]octan-1-yl)methyl)carbamoyl)cyclohexyl)acetic acid], the EC50 is ≤ 0.05 µM.

With `COc1ccc([C@H]2CC[C@H](CN(c3cc(-c4cnc(C(C)C)s4)ccn3)C(=O)[C@H]3CC[C@H](CC(=O)O)CC3)CC2)cc1C` [Compound 2.12, 2-(trans-4-((4-(2-Isopropylthiazol-5-yl)pyridin-2-yl)((trans-4-(4-methoxy-3-methylphenyl)cyclohexyl)methyl)carbamoyl)cyclohexyl)acetic acid], the EC50 was ≤ 0.05 µM.

As to `COc1ccc(C23CCC(CN(c4cc(-c5cnn(C(C)(C)C)c5)ccn4)C(=O)[C@H]4CC[C@H](CC(=O)O)CC4)(CC2)CC3)cc1C` [Compound 4.04, trans-2-(4-((4-(1-(tert-Butyl)-1H-pyrazol-4-yl)pyridin-2-yl)((4-(4-methoxy-3-methylphenyl)bicyclo[2.2.2]octan-1-yl)methyl)carbamoyl)cyclohexyl)acetic acid], the EC50 is ≤ 0.05 µM.

With `COc1ccc(C23CCC(CN(c4cc(-c5coc(C(C)C)n5)ccn4)C(=O)[C@H]4CC[C@H](CC(=O)O)CC4)(CC2)CC3)cc1C` [Compound 4, trans-2-(4-((4-(2-Isopropyloxazol-4-yl)pyridin-2-yl)((4-(4-methoxy-3-methylphenyl)bicyclo[2.2.2]octan-1-yl)methyl)carbamoyl)cyclohexyl)acetic acid], the EC50 was ≤ 0.05 µM.

With `COc1ccc(C23CCC(CN(c4cccc(-c5cnn(C(C)(C)C)c5)c4)C(=O)[C@H]4CC[C@H](C(=O)O)CC4)(CC2)CC3)cc1C` [Compound 2.03, trans-4-((3-(1-(tert-Butyl)-1H-pyrazol-4-yl)phenyl)((4-(4-methoxy-3-methylphenyl)bicyclo[2.2.2]octan-1-yl)methyl)carbamoyl)cyclohexanecarboxylic acid], the EC50 is ≤ 0.05 µM.

Turning to `COc1ccc(C23CCC(CN(c4cc(-c5noc(C(C)C)n5)ccn4)C(=O)[C@H]4CC[C@H](CC(=O)O)CC4)(CC2)CC3)cc1C` [Compound 4.21, trans-2-(4-((4-(5-lsopropyl-1,2,4-oxadiazol-3-yl)pyridin-2-yl)((4-(4-methoxy-3-methylphenyl)bicyclo[2.2.2]octan-1-yl)methyl)carbamoyl)cyclohexyl)acetic acid], the EC50 lay in the range of 0.05 to 1 µM.

Consider `COc1ccc(C23CCC(CN(c4cccc(-n5cnc(C6CC6)c5)c4)C(=O)[C@H]4CC[C@H](CC(=O)O)CC4)(CC2)CC3)cc1C` [Compound 4.29, trans-2-(-4-((3-(4-Cyclopropyl-1H-imidazol-1-yl)phenyl)((4-(4-methoxy-3-methylphenyl)bicyclo[2.2.2]octan-1-yl)methyl)carbamoyl)cyclohexyl)acetic acid], for which the EC50 was ≤ 0.05 µM.

On to `COc1ncc(C23CCC(CN(c4cc(-c5cnn(C(C)C)c5)ccn4)C(=O)[C@H]4CC[C@H](CC(=O)O)CC4)(CC2)CC3)cc1C` [Compound 4.12, trans-2-(4-((4-(1-Isopropyl-1H-pyrazol-4-yl)pyridin-2-yl)((4-(6-methoxy-5-methylpyridin-3-yl)bicyclo[2.2.2]octan-1-yl)methyl)carbamoyl)cyclohexyl)acetic acid], for which the EC50 was ≤ 0.05 µM.

Take `COc1ccc(C23CCC(CN(c4nccc(-c5cnn(C(C)C)c5)n4)C(=O)[C@H]4CC[C@H](CC(=O)O)CC4)(CC2)CC3)cc1C` (relative stereo) [Compound 4.09, trans-2-(4-((4-(1-Isopropyl-1H-pyrazol-4-yl)pyrimidin-2-yl)((4-(4-methoxy-3-methylphenyl)bicyclo[2.2.2]octan-1-yl)methyl)carbamoyl)cyclohexyl)acetic acid]: the EC50 is ≤ 0.05 µM.

For `COc1ccc(C23CCC(CN(c4cc(-n5cnc(C(C)C)n5)ccn4)C(=O)[C@H]4CC[C@H](CC(=O)O)CC4)(CC2)CC3)cc1C` [Compound 4.26, trans-2-(4-((4-(3-Isopropyl-1H-1,2,4-triazol-1-yl)pyridin-2-yl)((4-(4-methoxy-3-methylphenyl)bicyclo[2.2.2]octan-1-yl)methyl)carbamoyl)cyclohexyl)acetic acid], the EC50 is 0.05 to 1 µM.

In the case of `CN(C)c1ccc(C23CCC(CN(c4cccc(-c5cnn(C(C)(C)C)c5)c4)C(=O)[C@H]4CC[C@H](CC(=O)O)CC4)(CC2)CC3)cn1` [Compound 2, trans-2-(4-((3-(1-(tert-Butyl)-1H-pyrazol-4-yl)phenyl)((4-(6-(dimethylamino)pyridin-3-yl)bicyclo[2.2.2]octan-1-yl)methyl)carbamoyl)cyclohexyl)acetic acid], the EC50 is ≤ 0.05 µM.

In the case of `COc1ccc(C23CCC(CN(c4cc(-c5cnn(C(C)C)c5)ccn4)C(=O)[C@H]4CC[C@@H](C(=O)O)CC4)(CC2)CC3)cc1C` [Compound 3.01, cis-4-((4-(1-Isopropyl-1H-pyrazol-4-yl)pyridin-2-yl)((4-(4-methoxy-3-methylphenyl)bicyclo[2.2.2]octan-1-yl)methyl)carbamoyl)cyclohexanecarboxylic acid], the EC50 was in the range of 0.05 to 1 µM.

As to `COc1ccc([C@H]2CC[C@H](CN(c3cccc(-c4cnn(C(C)(C)C)c4)c3)C(=O)[C@H]3CC[C@H](CC(=O)O)CC3)CC2)cc1C` [Compound 2.04, 2-(trans-4-((3-(1-(tert-Butyl)-1H-pyrazol-4-yl)phenyl)((trans-4-(4-methoxy-3-methylphenyl)cyclohexyl)methyl)carbamoyl)cyclohexyl)acetic acid], the EC50 was ≤ 0.05 µM.

On to `COc1ccc(C23CCC(CN(c4cc(-c5cnn(C(C)C)c5)ncn4)C(=O)[C@H]4CC[C@H](CC(=O)O)CC4)(CC2)CC3)cc1C` [Compound 3, trans-2-(4-((6-(1-Isopropyl-1H-pyrazol-4-yl)pyrimidin-4-yl)((4-(4-methoxy-3-methylphenyl)bicyclo[2.2.2]octan-1-yl)methyl)carbamoyl)cyclohexyl)acetic acid], for which the EC50 fell in the range of 0.05 to 1 µM.

On to `COc1ccc(C23CCC(CN(c4cccc(-c5cnn(C(C)C)c5)c4)C(=O)[C@H]4CC[C@H](C(=O)O)CC4)(CC2)CC3)cc1C` [Compound 4.01, trans-4-((3-(1-Isopropyl-1H-pyrazol-4-yl)phenyl)((4-(4-methoxy-3-methylphenyl)bicyclo[2.2.2]octan-1-yl)methyl)carbamoyl)cyclohexanecarboxylic acid], for which the EC50 is ≤ 0.05 µM.

With `COc1ncc(C23CCC(CN(c4cccc(-c5cnn(C(C)C)c5)c4)C(=O)[C@H]4CC[C@H](CC(=O)O)CC4)(CC2)CC3)cc1C` [Compound 4.11, trans-2-(4-((3-(1-Isopropyl-1H-pyrazol-4-yl)phenyl)((4-(6-methoxy-5-methylpyridin-3-yl)bicyclo[2.2.2]octan-1-yl)methyl)carbamoyl)cyclohexyl)acetic acid], the EC50 is ≤ 0.05 µM.
